Patent publication US20160229835A1, “NOVEL PYRIDYLOXYACETYL TETRAHYDROISOQUINOLINE COMPOUNDS USEFUL AS NAMPT INHIBITORS” (ELI LILLY AND COMPANY, priority 2013, published 2016)
Read-outs that look alike come from different tables or passages of the source.

Columns and labels:
[1] = tested on: SW13; assay: Cell Proliferation Assay ±NA, SW13; assay type: cell-based; conditions: Homo sapiens, SW13, adrenal gland, treatment time 72 hr
Procedure: (§1) The purpose of this assay is to measure the ability of a compound to inhibit proliferation of endometrium, kidney, adrenal gland, and autonomic ganglia cancer cell lines dependent on the NAMPT-mediated NAD^+ formation in the presence or absence of NA (10 μM) in vitro. One day before the planned initiation of compound treatment portion of the assay, one vial of assay ready frozen cells is thawed, and the cells are grown overnight in the media as shown in Table 3 under 5% CO2 at 37° C. Then, the cell layer is briefly rinsed with 0.25% (w/v) Trypsin-0.038% (w/v) EDTA solution followed with the addition of 3.0 ml of Trypsin-EDTA solution. Once the cell layer is dispersed, 8.0 ml of complete growth medium (Table 3) is added and cells are aspirated by gently pipetting. The cell suspension is transferred to a centrifuge tube and centrifuged at 800-1000 rpm for 3-5 minutes. The supernatant is discarded using a vacuum pump. The cell pellet is suspended in a complete medium by gently pipetting. The cell numbers are counted and adjusted to the appropriate density (Table 3). […] The bottom of each plate is pasted with a white back seal and luminescence is recorded using a Flexstation 3 with the following settings: Luminescence and integration time of 500 ms.

[2] = tested on: NCI-H295; assay: Cell Proliferation Assay ±NA, NCI-H295; assay type: cell-based; conditions: NCI-H295, adrenal gland, treatment time 144 hr
Procedure: as §1

[3] = tested on: ACHN; assay: Cell Proliferation Assay ±NA, ACHN; assay type: cell-based; conditions: Homo sapiens, kidney, treatment time 72 hr
Procedure: as §1

[4] = tested on: U031; assay: Cell Proliferation Assay ±NA, U031; assay type: cell-based; conditions: U031, kidney, treatment time 72 hr
Procedure: as §1

[5] = tested on: NAMPT-mediated NAD+ formation in A2780 tumors; assay: IVTI Assay (NAD+ formation in A2780 tumors); assay type: in vivo; conditions: A2780 xenograft, female nude mice, oral gavage, after 2 doses (7 hours after second dose); ± SE
Procedure: The purpose of this assay is to measure the ability of a test compound to inhibit the NAMPT-mediated NAD^+ formation in tumors in an animal model. A2780 cells (ATCC) are grown as described above for the NAD^+ assay (Assay for NAD^+/NMN Levels in A2780 Cells). The cells (5×10^6/animal) are mixed with MATRIGEL® (1:1) and implanted subcutaneously into the rear flank of the mice (female nude mice, Harlan). The implanted tumor cells grow as solid tumors. The tumor volume and body weight are measured twice a week with a caliper. After tumor volume reaches approximately 300-500 mm^3, animals are randomized and grouped into positive control (described herein; 5 animals/group) and compound treatment groups (5 animals/group). The compound (formulated in 20% of CAPTISOL® and 25 mM of phosphate buffer, pH 2) and positive control (20% of CAPTISOL® and 25 mM of phosphate buffer, pH 2) are administered by oral gavage. Compound doses are in the range of 0.10 to 25 mg/kg. […] The resulting preparations (0.5 mL each) are filtered (with a 10K cutoff filter) to remove hemoglobin because red color interferes with the absorbance. […] NAD^+ quantitation is carried out using a NAD^+/NADH cycling assay kit (BioVision, cat#337-100-1). […] The percent inhibition of compound treated groups is calculated relative to the minimum inhibition groups. […]

[6] = NA 0.0 μM, read-out: IC50 (μM) NA (0.0 μM)
[7] = NA 10 μM, read-out: IC50 (μM) NA (10 μM)

IC50 [1, 6]: 0.05 µM | IC50 [1, 7]: 0.02 µM | IC50 [2, 6]: 0.1 µM | IC50 [2, 7]: 0.06 µM | IC50 [3, 6]: 0.11 µM | IC50 [3, 7]: > 2 µM
SMILES: CC(C)(O)CS(=O)(=O)Nc1ccc2c(c1)CCN(C(=O)COc1cccnc1)C2 [Example 1, 2-Hydroxy-2-methyl-N-[2-[2-(3-pyridyloxy)acetyl]-3,4-dihydro-1H-isoquinolin-6-yl]propane-1-sulfonamide]
IC50 [4, 6]: 0.06 µM | IC50 [4, 7]: 0.06 µM | TED50 (dose for 50% inhibition of NAD+ formation in tumor) [5]: 2.56 ± 0.37 mg/kg
